Experiments:
MC3T3-E1 cells [1] = experiment: Alizarin red staining (mineralization) of MC3T3-E1 cells; assay type: cell-based, mouse; conditions: MC3T3-E1, 10 and 50 μg/ml, 14 days
Protocol: Here, the medium exchange every three days and the treatment with the peptide were repeated (positive control: 30 ng/ml rhBMP2 (Cell signaling)). After the completion of the incubation, the plate well was washed two times with PBS, and the cells were immobilized by the treatment with 70% EtOH for 1 hour. Then, the cells were stained with 40 mM Alizarin red S (pH 4.2, Sigma Aldrich) for 10 minutes. The cells were treated with 10% cetyl pyridinium chloride (dissolved in 10 mM sodium phosphate (pH 7.0)) for 15 minutes, and then the absorbance was read at 560 nm using a spectrophotometer (SpectraMax, Molecular Devices).

Ha3-II and keratin 14 = experiment: RT-PCR of keratinocyte differentiation markers in HaCaT cells; assay type: cell-based, human; conditions: HaCaT, 0.1, 1 and 10 μg/ml, 24 hours
Protocol: The cells were treated with the peptides at different concentrations (0.1 μg/ml, 1 μg/ml, and 10 μg/ml), and then incubated in an incubator at 37° C. for 24 hours. […] RT-PCR was carried out using primers of respective markers (Ha3-II and keratin 14) and PCR pre-mix (Intron) to measure the changes in the expression of the markers.
Target-specific primer sequences used in PCR for keratinocyte differentiation markers were as follows: Ha3-II forward primer sequence, 5′-[…]-3′ and Ha3-II reverse primer, 5′-[…]-3′ (annealing temperature, 60° C.); Keratin14 forward primer sequence, 5′-[…]-3′ and Keratin14 reverse primer, 5′-[…]-3′ (annealing temperature, 60° C.)

osteoprotegerin (OPG) = experiment: RT-PCR of osteogenic differentiation marker OPG; assay type: cell-based, mouse; conditions: MC3T3-E1, three days
Phospho-PI3K = experiment: Western blotting using osteoblasts (PI3K phosphorylation); assay type: cell-based; conditions: mouse osteoblast line, 50 μg/ml, 15 minutes
Protocol: The cells were treated with the peptides at 50 μg/ml for 15 minutes (positive control: HGF 50 ng/ml). The cells were treated with the cell lysis buffer to obtain a lysate, followed by protein quantification, and then western blotting was performed with respect to Phospho-PI3K (P-PI3K) using anti-pPI3K antibody (Santa Cruz Biotechnology, USA).

TNFR = experiment: Receptor binding assay (TNFR), ELISA; conditions: peptide coated 50 μg/25 μl, O.D. 450 nm, positive control TNF-α
[2] = tested on: human hair follicle germinal matrix cells (HFGMC); experiment: Cell proliferation assay (SRB), HFGMC; assay type: cell-based; conditions: 1, 10 and 50 μg/ml, 72 hours
Protocol: (§1) In order to observe the cell proliferation effect on human hair follicle dermal papilla cells, human hair follicle germinal matrix cells, and human umbilical vein endothelial cells, which are main hair cells, each type of cells were seeded on a 96-well plate at a density of 3×10^3 cells/well, followed by incubation under conditions of 37° C. and 5% CO2 for 24 hours. After the medium was exchanged with the same culture medium completely excluding serum, the cells were treated with the peptides at different concentrations (1 μg/ml, 10 μg/ml, and 50 μg/ml), followed by incubation under the same conditions for 72 hours. After the incubation supernatant was removed, the cells were immobilized using ethanol, and washed three times with phosphate buffer saline (PBS). The wash solution was removed, and the cells were stained through the treatment with colorimetric SRB solution. After the cells were sufficiently washed with 1% acetic acid, the cells were observed using a microscope to observe the state of living cells. The absorbance was read at UV light of 560 nm, thereby measuring the survival conditions of cells

Phospho-ERK (pERK) = experiment: Western blotting of cell signaling material, ERK phosphorylation; assay type: cell-based, human; conditions: HFDPC, 1 and 10 μg/ml, 30 minutes and 60 minutes
Protocol: (§2) In order to observe the changes in the phosphorylation of ERK and the expression of PI3K, which are main signaling materials involved in cell proliferation in the human hair follicle dermal papilla cells, the cells were treated with the peptides of the present invention for 30 minutes and 60 minutes, and then subjected to western blotting using specific antibodies, thereby observing the pERK and PI3K changes. The test was carried out using anti-pERK antibody (Santa Cruz Biotechnology, USA) and anti-pPI3K antibody (Santa Cruz Biotechnology, USA).
(§3) The cells were treated with the cell lysis buffer to obtain a lysate, followed by protein quantification, and then western blotting was performed with respect to Phospho-ERK (pERK), PI3K, and β-catenin.

β-catenin = experiment: Western blotting of cell signaling material, β-catenin; assay type: cell-based, human; conditions: HFDPC, 1 and 10 μg/ml, 30 minutes and 60 minutes
Protocol: as §2, §3

IL-8 = IL-8 ELISA in THP-1 cells treated with TNF-α; assay type: cell-based, human; conditions: 10 μg/ml pre-treatment 30 minutes, 50 ng/ml TNF-α, 24 hours
Protocol: The human monocytes, THP-1 cells were seeded on a 24-well plate at a density of 2×10^6 cells/well. After incubation overnight, the cells were pre-treated with the samples at 10 μg/ml for 30 minutes, and treated with 50 ng/ml TNF-α, followed by incubation for 24 hours. The cell incubation medium was obtained, followed by centrifugation at 13,000 rpm for 10 minutes at 4° C., and then the supernatant was separated. ELISA was carried out using IL-1b and IL-8 ELISA kit (R&D system).

[3] = tested on: human hair follicle dermal papilla cells (HFDPC); experiment: Cell proliferation assay (SRB), HFDPC; assay type: cell-based; conditions: 1, 10 and 50 μg/ml, 72 hours
Protocol: as §1

MC3T3-E1 cells [4] = experiment: ALP staining of MC3T3-E1 cells; assay type: cell-based, mouse; conditions: MC3T3-E1, 10 μg/ml and 50 μg/ml, 14 days
Protocol: The mouse osteoblast line, MC3T3-E1 cells were seeded on a 24-well plate at 4×10^4 cells/well, and then incubated overnight. After the exchange with a medium containing 50 μg/ml ascorbic acid+10 mM b-glycerophosphate, the cells were treated with each peptide at concentrations of 10 μg/ml and 50 μg/ml, and incubated for 14 days to induce differentiation. Here, the medium exchange every three days and the treatment with the peptide were repeated (positive control: BMP2 […]). The incubation-completed plate well was washed two times with PBS, and then the cells were immobilized with an immobilization buffer, in which acetone, 37% formaldehyde, and citric acid solution were mixed, for 30 seconds. The following staining was carried out using the leukocyte alkaline phosphatase staining kit (SIGMA).
The cells were treated with a mixture, in which an FBB-alkaline solution was mixed with a sodium nitrite solution at 1:1, for 2 minutes, and then treated with a buffer composed of distilled water and naphthol AS-BI alkaline solution, followed by color development in an incubator at 37° C. for 1 hour.

Substance: NH2-Ala-Cys-Arg-Ser-Ala-Ile-Gly-Arg-Pro-Cys-COOH (H-ACRSAIGRPC-OH; cysteine pairing not given here) [SEQ ID NO: 1]
- mineralization (Alizarin red staining) (MC3T3-E1 cells [1]): increased
- mRNA expression levels of differentiation markers Ha3-II and keratin 14 (Ha3-II and keratin 14): keratinocyte differentiation promoting effect
- expression of osteoprotegerin (OPG) (osteoprotegerin (OPG)): increased
- phosphorylation of PI3K by HGFR signal stimulation (Phospho-PI3K): increased
- binding affinity to TNFR (TNFR): high binding affinity
- cell proliferation, HFGMC [2]: increased in a concentration-dependent manner
- phosphorylation of ERK (Phospho-ERK (pERK)): increased
- expression of β-catenin (β-catenin): increased
- expression of IL-8 increased by TNF-α treatment (IL-8): inhibited
- cell proliferation, HFDPC [3]: increased in a concentration-dependent manner
- ALP expression (ALP staining) (MC3T3-E1 cells [4]): increased

Source: patent publication US10238710B2, “Peptide having anti-inflammatory, osteogenic and hair growth promoting activities, and use of same” (CAREGEN CO., LTD., priority 2014, dated 2019)
